Activity, EC50 and Ki data for 28 compounds are collected here from ChEMBL document CHEMBL5226363, “Alkaloids and Coumarins with Adiponectin-Secretion-Promoting Activities from the Leaves of Orixa japonica” (J Nat Prod, 2023).

For series [1], the system named is Mesenchymal stem cells. Description: Cytotoxicity against human BMMSC cells assessed as reduction in cell viability at 10 uM incubated for 72 hrs by CCK8 assay. Format: toxicity, cell-based. In general terms: Tetrazolium dyes change colour on reduction, which living cells bring about.
Series [2] concerns the target T1, Peroxisome proliferator-activated receptor alpha (Homo sapiens) (UniProt Q07869).
T1 sequence (whole entry): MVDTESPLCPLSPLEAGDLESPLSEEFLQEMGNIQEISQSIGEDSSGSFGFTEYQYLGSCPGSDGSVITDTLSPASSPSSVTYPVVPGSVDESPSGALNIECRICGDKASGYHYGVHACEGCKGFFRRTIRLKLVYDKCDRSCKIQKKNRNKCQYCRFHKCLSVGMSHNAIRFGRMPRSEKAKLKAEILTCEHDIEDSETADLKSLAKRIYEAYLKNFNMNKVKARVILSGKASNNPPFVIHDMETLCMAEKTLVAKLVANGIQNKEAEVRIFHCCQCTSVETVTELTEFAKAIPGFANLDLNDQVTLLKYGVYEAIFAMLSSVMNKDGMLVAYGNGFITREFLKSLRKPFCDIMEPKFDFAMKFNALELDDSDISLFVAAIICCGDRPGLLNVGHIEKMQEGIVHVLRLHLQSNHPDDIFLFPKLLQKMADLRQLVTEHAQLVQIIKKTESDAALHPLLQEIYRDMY
The experiment in a line: Displacement of fluormone pan-PPARgreen from GST-tagged human PPARalpha ligand binding domain at 10 uM by LanthaScreen TR-FRET competitive binding assay. (TR-FRET usually uses a lanthanide donor and a delayed reading to cut background.)

Series [3] has as its target T2, Peroxisome proliferator-activated receptor gamma (Homo sapiens) (UniProt P37231).
T2 sequence (whole entry): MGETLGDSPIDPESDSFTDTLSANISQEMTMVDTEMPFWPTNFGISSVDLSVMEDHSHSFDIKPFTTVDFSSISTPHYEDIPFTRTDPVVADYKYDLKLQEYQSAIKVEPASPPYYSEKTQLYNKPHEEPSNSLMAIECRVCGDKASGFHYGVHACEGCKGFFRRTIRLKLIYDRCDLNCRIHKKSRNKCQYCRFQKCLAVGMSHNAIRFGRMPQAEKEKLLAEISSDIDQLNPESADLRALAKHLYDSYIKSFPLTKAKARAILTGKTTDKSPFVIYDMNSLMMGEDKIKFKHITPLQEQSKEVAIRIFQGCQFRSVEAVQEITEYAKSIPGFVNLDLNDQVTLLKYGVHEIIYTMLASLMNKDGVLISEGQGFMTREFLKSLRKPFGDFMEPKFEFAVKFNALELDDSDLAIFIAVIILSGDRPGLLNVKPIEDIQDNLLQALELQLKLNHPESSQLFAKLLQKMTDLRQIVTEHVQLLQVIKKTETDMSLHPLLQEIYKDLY
Description: Partial agonist activity at PPARgamma in human BMMSC cells assessed as increase in size and number of intracellular lipid droplets during adipocyte differentiation in presence of IDX medium at 10 uM by Oil Red O/hematoxylin staining based analysis. Format: cell-based. Conditions: filed as partial agonist.

The target in series [4] is T3, Peroxisome proliferator-activated receptor gamma (Homo sapiens, UniProt P37231).
T3 sequence (P37231 whole entry): T2 sequence (whole entry)
The experiment in a line: Partial agonist activity at GST-tagged PPAR-gamma ligand binding domain (unknown origin) assessed as recruitment of fluorescein-labeled SRC3 coactivator peptide by LanthaScreen TR-FRET Coactivator assay.

The target of series [5] is T2, Peroxisome proliferator-activated receptor gamma (Homo sapiens). Description: Partial agonist activity at GST-tagged PPAR-gamma ligand binding domain (unknown origin) assessed as inhibition of pioglitazone-induced recruitment of fluorescein-labeled PRIP/RAP250 coactivator peptide at 10 uM in presence of pioglitazone by LanthaScreen TR-FRET Coactivator assay. Conditions: filed as partial agonist.

Series [6] concerns the target T4, Oxysterols receptor LXR-beta (Homo sapiens) (UniProt P55055).
T4 sequence (whole entry): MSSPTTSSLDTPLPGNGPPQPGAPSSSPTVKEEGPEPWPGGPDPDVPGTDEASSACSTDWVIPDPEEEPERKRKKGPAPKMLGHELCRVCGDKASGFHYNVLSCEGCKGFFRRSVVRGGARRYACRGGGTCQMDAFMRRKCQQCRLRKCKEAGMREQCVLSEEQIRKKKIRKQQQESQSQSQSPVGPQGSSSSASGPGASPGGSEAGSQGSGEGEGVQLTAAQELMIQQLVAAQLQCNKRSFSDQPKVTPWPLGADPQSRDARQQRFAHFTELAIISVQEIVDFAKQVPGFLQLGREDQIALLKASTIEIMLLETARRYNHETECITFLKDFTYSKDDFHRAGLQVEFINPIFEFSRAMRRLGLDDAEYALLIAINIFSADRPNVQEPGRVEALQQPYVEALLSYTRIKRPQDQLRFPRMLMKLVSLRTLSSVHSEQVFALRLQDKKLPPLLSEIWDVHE
Description: Agonist activity at GST-tagged LXR-beta ligand binding domain (unknown origin) at 10 uM LanthaScreen TR-FRET Coactivator assay.

Series [7] has as its target T3, Peroxisome proliferator-activated receptor gamma. Description: Displacement of fluormone pan-PPARgreen from GST-tagged human PPARgamma ligand binding domain by LanthaScreen TR-FRET competitive binding assay.
The target is the same in series [8]. Description: Partial agonist activity at GST-tagged PPAR-gamma ligand binding domain (unknown origin) assessed as recruitment of fluorescein-labeled PRIP/RAP250 coactivator peptide by LanthaScreen TR-FRET Coactivator assay.
The target of series [9] is T2, Peroxisome proliferator-activated receptor gamma (Homo sapiens). The experiment in a line: Partial agonist activity at GST-tagged PPAR-gamma ligand binding domain (unknown origin) assessed as recruitment of fluorescein-labeled PRIP/RAP250 coactivator peptide at 10 uM by LanthaScreen TR-FRET Coactivator assay. Particulars: filed as partial agonist.
Series [10] addresses T5, Peroxisome proliferator-activated receptor delta (Homo sapiens) (UniProt Q03181).
T5 sequence (whole entry): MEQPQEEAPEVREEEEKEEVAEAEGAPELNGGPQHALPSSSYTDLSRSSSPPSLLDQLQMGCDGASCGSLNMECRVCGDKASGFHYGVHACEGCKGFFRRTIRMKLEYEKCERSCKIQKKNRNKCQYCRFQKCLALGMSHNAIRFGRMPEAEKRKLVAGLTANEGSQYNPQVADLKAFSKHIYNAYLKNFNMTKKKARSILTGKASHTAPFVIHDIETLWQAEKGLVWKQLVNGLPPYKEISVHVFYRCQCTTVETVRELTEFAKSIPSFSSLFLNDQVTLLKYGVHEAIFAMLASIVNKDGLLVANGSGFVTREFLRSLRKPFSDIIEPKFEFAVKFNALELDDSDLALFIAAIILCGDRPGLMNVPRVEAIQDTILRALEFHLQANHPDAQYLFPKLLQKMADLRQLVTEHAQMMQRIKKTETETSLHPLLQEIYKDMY
Description: Displacement of fluormone pan-PPARgreen from GST-tagged human PPARdelta ligand binding domain at 10 uM by LanthaScreen TR-FRET competitive binding assay.

Series [11] deals with T6, Bile acid receptor (Homo sapiens) (UniProt Q96RI1).
T6 sequence (whole entry): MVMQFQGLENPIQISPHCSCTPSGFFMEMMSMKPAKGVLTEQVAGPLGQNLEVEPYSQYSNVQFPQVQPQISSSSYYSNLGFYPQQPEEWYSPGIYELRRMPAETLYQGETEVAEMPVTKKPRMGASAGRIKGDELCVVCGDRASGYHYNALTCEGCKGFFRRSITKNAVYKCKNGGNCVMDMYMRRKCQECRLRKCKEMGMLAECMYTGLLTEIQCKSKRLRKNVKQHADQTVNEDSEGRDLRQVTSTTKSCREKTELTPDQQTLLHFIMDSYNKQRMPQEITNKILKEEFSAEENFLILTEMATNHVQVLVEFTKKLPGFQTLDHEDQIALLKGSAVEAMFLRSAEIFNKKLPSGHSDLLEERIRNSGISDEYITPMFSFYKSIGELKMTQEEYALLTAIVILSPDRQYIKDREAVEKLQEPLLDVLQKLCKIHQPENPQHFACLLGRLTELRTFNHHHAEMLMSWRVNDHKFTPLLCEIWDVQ
The experiment in a line: Agonist activity at GST-tagged FXR ligand binding domain (unknown origin) at 10 uM LanthaScreen TR-FRET Coactivator assay.

Series [12] deals with T3, Peroxisome proliferator-activated receptor gamma. Description: Partial agonist activity at PPARgamma in human BMMSC cells assessed as promotion of adiponectin secretion by measuring increase in adiponectin level in presence of IDX medium by ELISA. Type of series: cell-based. Background: In an ELISA, binding on a coated surface is turned into a signal by an enzyme label.

For series [13] the target is unchanged. Description: Partial agonist activity at GST-tagged PPAR-gamma ligand binding domain (unknown origin) assessed as recruitment of fluorescein-labeled SRC1 coactivator peptide by LanthaScreen TR-FRET Coactivator assay.
The target is the same in series [14]. Description: Agonist activity at PPARgamma in human BMMSC cells assessed as promotion of adiponectin secretion by measuring increase in adiponectin level in presence of IDX medium by ELISA. Type of series: cell-based.

The structures appear in SMILES notation. Activity calls are given as the source filed them. No cut-off for these calls is given here.

On to `COc1cc2ccc(=O)oc2c(OC)c1OC/C=C(\C)C/C=C/C(C)(C)OO`, for which the Activity result in series [1] is given as “Non-Toxic”.

As for `CC(C)=CCOc1c2occc2cc2ccc(=O)oc12` [PENTOSALEN], the Activity result in [1] is reported as “Non-Toxic”.

With `COc1ccc(-c2cc(=O)c3c(O)c(OC)ccc3n2C)cc1`, the Activity entry in [1] is given as “Non-Toxic”.

Regarding `COc1c2occc2cc2ccc(=O)oc12` [METHOXSALEN], the Activity entry in [1] was “Non-Toxic”.

For `COc1c2ccoc2cc2oc(=O)ccc12` [BERGAPTEN], the Activity result in [1] was “Non-Toxic”.

Consider `C=C[C@]1(C)C[C@H](OC(C)=O)[C@@H](C(C)(C)O)C[C@H]1C(=C)C`, for which the Activity entry in series [1] is listed as “Non-Toxic”.

For orientation: EC50 means the concentration that produces a half-maximal response. One may read the Ki as a dissociation constant, usually derived from enzyme kinetics or from competition with a known ligand. The low end stands for higher affinity, the high end for lower affinity. `COc1cc2ccc(=O)oc2cc1OC/C=C(\C)CCC=C(C)C`: the result in series [2], in series [6], in [10] and in series [11] was inactive. In addition, the result in [3], in [5] and in series [9] was Active. In addition, the EC50 was > 30 µM in series [4], 17.3 µM in series [8], 25.8 µM in [12] and > 30 µM in [13]. In [1], the Activity entry is “Non-Toxic”. The compound also had an inhibition constant Ki in series [7] of 10.7 µM.

In the case of `COC(C)(C)/C=C/C/C(C)=C/COc1ccc2ccc(=O)oc2c1`, the Activity entry in series [1] is on record as “Non-Toxic”.

With `COc1ccc(-c2cc(=O)c3c(O)cccc3n2C)cc1`, the Activity entry in series [1] is on record as “Non-Toxic”.

As for `COc1c(CC=C(C)C)c(=O)n(C)c2ccccc12`, the Activity result in series [1] is reported as “Non-Toxic”.

Consider `C=C(C)C(CC/C(C)=C/COc1c(OC)cc2ccc(=O)oc2c1OC)OO` (configuration not stated), for which the Activity entry in series [1] is “Non-Toxic”.

`COc1c(CC(=O)C(C)C)c(=O)[nH]c2c(OC)cccc12`: the Activity result in series [1] is on record as “Non-Toxic”.

As for `COc1c(CC(=O)C(C)C)c(=O)n(C)c2ccccc12`, in series [1], the Activity result is listed as “Non-Toxic”.

For `C=C[C@]1(C)C[C@H](O)[C@@H](C(C)(C)O)C[C@H]1C(=C)C`, the Activity result in series [1] is “Non-Toxic”.

For the compound `CC(C)=CCC/C(C)=C/COc1ccc2ccc(=O)oc2c1`, in series [14], the EC50 is > 30 µM. The Activity entry in series [1] is “Non-Toxic”.

Turning to `COc1c2ccoc2c(OC)c2oc(=O)ccc12` [ISOPIMPINELLIN], in series [1], the Activity result is given as “Non-Toxic”.

As for `C=C(C)C(O)COc1c2occc2cc2ccc(=O)oc12` (configuration not stated), in [1], the Activity entry is “Non-Toxic”.

Regarding `C=C(C)C(O)CC/C(C)=C/COc1ccc2ccc(=O)oc2c1` (configuration not stated), in series [1], the Activity result was “Non-Toxic”.

As for `COc1cc2ccc(=O)oc2c(OC)c1OC/C=C(\C)CCC=C(C)C` [ALTISSIMACOUMARIN D], the EC50 in series [14] is > 30 µM. For the same compound, in [1], the Activity entry is listed as “Non-Toxic”.

On to `COc1c(CC(=O)C(C)C)c(=O)n(C)c2c(OC)c(O)ccc12`, for which, in series [1], the Activity entry is “Non-Toxic”.

With `O=c1ccc2cc3ccoc3cc2o1` [PSORALEN], the Activity entry in [1] is on record as “Non-Toxic”.

As for `COc1c2c(cc3ccc(=O)oc13)C[C@@H](C(C)(C)OC(C)=O)O2`, the Activity entry in [1] is given as “Non-Toxic”.

Turning to `COc1c(CC=C(C)C)c(=O)[nH]c2c(OC)c(O)ccc12`, the Activity entry in series [1] is given as “Non-Toxic”.

Regarding `Cn1c(-c2ccccc2)cc(=O)c2c(O)cccc21`, the Activity result in series [1] was “Non-Toxic”.

With `CC(=O)[C@H]1CC[C@@H]2[C@@H]1[C@H](C(C)C)CC[C@]2(C)O`, the Activity entry in series [1] is reported as “Non-Toxic”.

Regarding `COc1ccc(Cl)cc1C(=O)NCCc1ccc(S(=O)(=O)NC(=O)NC2CCCCC2)cc1` [GLYBURIDE], in series [14], the EC50 was determined as 2.3 µM.

As for `COc1c(CC=C(C)C)c(=O)n(C)c2c(OC)cccc12`, the Activity result in series [1] was “Non-Toxic”.

For the compound `COc1c(CC(=O)C(C)C)c(=O)n(C)c2c(OC)cccc12` [ORIXALONE A], in series [1], the Activity entry is “Non-Toxic”.
